Data as given in patent US9353072B2, “Antimicrobial substituted thiazoles and methods of use” (Purdue Research Foundation, priority 2012, dated 2016).
Values after ≈ are worked out from the molar mass of the structure shown. “Also recorded” adds a separate entry of the source. Read-outs that look alike come from different tables or passages of the source.

Key:
NRS107 = experiment: MIC/MBC broth microdilution, NRS107; format: cell-based; details: Staphylococcus aureus
Description: (§1) Determination of minimum inhibitory concentration (MIC). The MICs of the lead thiazole compound (compound 1a) and nine derivatives tested against all 18 MRSA strains were determined, in triplicate samples, using the broth microdilution method in accordance with the recommendations contained in the CLSI guidelines.

MRSA ATCC 43300 [1] = experiment: Flow cytometry with LIVE/DEAD Fixable Dead Cell Stain; format: cell-based, Staphylococcus aureus; details: compound 1a at 4.0×MIC; lysostaphin positive control; 10 minutes at 37° C.
Description: Flow cytometry and LIVE/DEAD® Fixable Dead Cell Stain: The action of the lead compound on cell membrane permeability of MRSA was assayed using the LIVE/DEAD® Fixable Dead Cell Stain Kit (Invitrogen, Eugene, Oreg., USA) according to the manufacturer's instructions. […] Post-treatment cells were fixed with 3.7% formaldehyde; the cells were then screened with a Beckman Coulter FC500 flow cytometer.

[2] = tested on: MRSA ATCC 700699 (NRS1, VISA); experiment: MIC/MBC broth microdilution, NRS1 (ATCC 700699); format: cell-based; details: Staphylococcus aureus
Description: as §1

NRS194 = experiment: MIC/MBC broth microdilution, NRS194; format: cell-based; details: Staphylococcus aureus
Description: as §1

MRSA USA400 (NRS123) = experiment: MIC/MBC broth microdilution, NRS123 (USA400); format: cell-based; details: Staphylococcus aureus
Description: as §1

MRSA ATCC 43300 [3] = experiment: MIC/MBC broth microdilution, MRSA ATCC 43300; format: cell-based, Staphylococcus aureus; details: Staphylococcus aureus
Description: as §1

VRSA (VRS10) = experiment: MIC/MBC broth microdilution, VRSA (VRS10); format: cell-based, Staphylococcus aureus; details: Staphylococcus aureus, read-out: Minimum Inhibitory Concentration
Description: as §1

NRS119 = experiment: MIC/MBC broth microdilution, NRS119; format: cell-based; details: Staphylococcus aureus
Description: as §1

MRSA USA500 (NRS385) = experiment: MIC/MBC broth microdilution, NRS385 (USA500); format: cell-based; details: Staphylococcus aureus
Description: as §1

VISA LIM 3 (NRS37) = experiment: MIC/MBC broth microdilution, NRS37 (VISA LIM 3); format: cell-based; details: Staphylococcus aureus
Description: as §1

VISA HIP07256 (NRS19) = experiment: MIC/MBC broth microdilution, NRS19 (VISA HIP07256); format: cell-based; details: Staphylococcus aureus
Description: as §1

MRSA USA100 = experiment: MIC broth microdilution, MRSA USA100; format: cell-based; details: Staphylococcus aureus; Table 2; MRSA USA100; read-out: Minimum Inhibitory Concentration
Description: as §1

[4] = tested on: 18 different strains of MRSA and VRSA; experiment: MIC broth microdilution, panel of 18 MRSA and VRSA strains (summary statements); format: cell-based, Staphylococcus aureus
Description: as §1

MRSA (USA300) = experiment: Time-kill assay; format: cell-based, Staphylococcus aureus; details: 3.0×MIC; for bactericidal effect in time-kill assay: 12 hour incubation at 37° C.; for time to eliminate MRSA completely (reduce CFU to zero): MRSA (USA300)
Description: Time-kill assay. […] Viable CFU/mL was determined by serial dilution and plating on trypticase soy agar (TSA) (Becton, Dickinson and Company, Sparks, Md., USA) plates after 0, 2, 4, 6, 8, 10, and 12 hours of incubation at 37° C. to identify the time required to reduce the bacterial cell count by 3-log10.

MRSA USA800 = experiment: MIC broth microdilution, MRSA USA800; format: cell-based; details: Staphylococcus aureus, Table 2, read-out: Minimum Inhibitory Concentration
Description: as §1

MRSA NRS384 (USA300) = experiment: MIC/MBC broth microdilution, NRS384 (USA300); format: cell-based; details: Staphylococcus aureus
Description: as §1

MRSA USA700 = experiment: MIC broth microdilution, MRSA USA700; format: cell-based; details: Staphylococcus aureus, Table 2, read-out: Minimum Inhibitory Concentration
Description: as §1

MRSA USA200 = experiment: MIC broth microdilution, MRSA USA200; format: cell-based; details: Staphylococcus aureus; Table 2; MRSA USA200; read-out: Minimum Inhibitory Concentration
Description: as §1

[5] = tested on: murine macrophage cells (J774.A1); experiment: In vitro cytotoxicity analysis, MTS assay; format: cell-based; details: 16 μM, 24 hours
Description: In vitro cytotoxicity analysis: Compounds were assayed at concentrations of 2 μM, 4 μM, 8 μM, and 16 μM against a macrophage cell line (J774.A1) to determine the potential toxic effect in vitro. Murine macrophage cells were cultured in Dulbeco's Modified Eagle Medium (Sigma-Aldrich, St. Louis, Mo., USA) with 10% Fetal Bovine Serum (USA Scientific, Inc.) at 37° C. with 5% CO2. Controls received DMSO alone at a concentration equal to that in drug-treated cell samples. The cells were incubated with the compounds in a 96-Well Plate at 37° C. and 5.0% CO2 for 24 hours prior to addition of the assay reagent MTS 3-(4,5-dimethylthiazol-2-yl)-5-(3-carboxymethoxyphenyl)-2-(4-sulfophenyl)-2H-tetrazolium) (Promega, Madison, Wis., USA). The reagent measures the succinate dehydrogenase mitochondrial activity as an indicator of cell viability and proliferation. Corrected absorbance readings (actual absorbance readings for each treatment subtracted from background absorbance) were taken using a kinetic ELISA microplate reader (Molecular Devices, Sunnyvale, Calif., USA). The quantity of viable cells after treatment with each compound was expressed as a percentage of the control, DMSO.

NRS108 = experiment: MIC broth microdilution, NRS108; format: cell-based; details: Staphylococcus aureus, Table 2, read-out: Minimum Inhibitory Concentration
Description: as §1

[6] = Table 2, MRSA ATCC 700699, read-out: Minimum Inhibitory Concentration
[7] = Table 2, MRSA USA500, read-out: Minimum Inhibitory Concentration
[8] = Table 2, VISA LIM 3, read-out: Minimum Inhibitory Concentration
[9] = Table 2, VISA HIP07256, read-out: Minimum Inhibitory Concentration
[10] = Table 2, MRSA USA300, read-out: Minimum Inhibitory Concentration
[11] = Table 2, NRS119, read-out: Minimum Inhibitory Concentration
[12] = Table 2, read-out: Minimum Inhibitory Concentration

SMILES: CCCCc1ccc(-c2nc(C)c(/C(C)=N/NC(=N)N)s2)cc1 [Compound 1a]
- MBC (NRS107; Table 8, read-out: MBC): 8 µM (≈ 2.64 µg/mL)
- MIC (NRS107; Table 8, read-out: MIC): 8 µM
- cells stained with the dye (MRSA ATCC 43300 [1]): 1.5%
- MIC [2, 6]: 1.4 µg/mL
- MIC ([2]; Table 7, VISA (NRS1), read-out: Minimum Inhibitory Concentration): 16 µM
- MBC ([2]; Table 8, NRS1 (VISA), read-out: MBC): 8 µM (≈ 2.64 µg/mL)
- MIC ([2]; Table 8, NRS1 (VISA), triplicates, 20 hours, read-out: MIC): 4 µM
- MBC (NRS194; Table 8, read-out: MBC): 4 µM (≈ 1.32 µg/mL)
- MIC (NRS194; Table 8, read-out: MIC): 4 µM
- MBC (MRSA USA400 (NRS123); Table 8, NRS123, read-out: MBC): 4 µM (≈ 1.32 µg/mL)
- MIC (MRSA USA400 (NRS123); Table 8, NRS123, read-out: MIC): 4 µM
- MIC (MRSA ATCC 43300 [3]; Table 4, MRSA ATCC 43300, 64 μM down to 0.5 μM, 37° C., 19 hours, read-out: Minimum Inhibitory Concentration): 4 µM
- MIC (MRSA ATCC 43300 [3]; Table 7, MRSA (ATCC 43300), read-out: Minimum Inhibitory Concentration): 4 µM
- MBC (MRSA ATCC 43300 [3]; Table 8, ATCC 43300, read-out: MBC): 4 µM (≈ 1.32 µg/mL)
- MIC (MRSA ATCC 43300 [3]; Table 8, ATCC 43300, read-out: MIC): 4 µM
- MIC (VRSA (VRS10); Table 7, VRSA (VRS10)): 4 µM
- MIC (NRS119; NRS 119 / VISA, Table 7, VISA (NRS119), read-out: Minimum Inhibitory Concentration): 4 µM
- MBC (NRS119; Table 8, NRS119, read-out: MBC): 8 µM (≈ 2.64 µg/mL)
- MIC (NRS119; Table 8, NRS119, read-out: MIC): 8 µM
- MIC (MRSA USA500 (NRS385); [7]): 1.4 µg/mL
- MBC (MRSA USA500 (NRS385); Table 8, NRS385, read-out: MBC): 4 µM (≈ 1.32 µg/mL)
- MIC (MRSA USA500 (NRS385); Table 8, NRS385, read-out: MIC): 4 µM
- MIC (VISA LIM 3 (NRS37); [8]): 1.4 µg/mL
- MBC (VISA LIM 3 (NRS37); Table 8, NRS37 (VISA), read-out: MBC): 8 µM (≈ 2.64 µg/mL)
- MIC (VISA LIM 3 (NRS37); Table 8, NRS37 (VISA), read-out: MIC): 8 µM
- MIC (VISA HIP07256 (NRS19); [9]): 1.4 µg/mL
- MBC (VISA HIP07256 (NRS19); Table 8, NRS19 (VISA), read-out: MBC): 8 µM (≈ 2.64 µg/mL)
- MIC (VISA HIP07256 (NRS19); Table 8, NRS19 (VISA), read-out: MIC): 4 µM
- MIC (MRSA USA100): 5.5 µg/mL (≈ 16.7 µM)
- concentration inhibiting growth (MIC), range over the strains tested ([4]; 18 strains of MRSA and VRSA): 1.4 to 5.5 µg/mL
- bactericidal effect in time-kill assay (MRSA (USA300)): bactericidal
- time to eliminate MRSA completely (reduce CFU to zero) (MRSA (USA300)): within two hours
- MIC (MRSA USA800): 2.8 µg/mL (≈ 8.5 µM)
- MIC (MRSA NRS384 (USA300); [10]): 1.4 µg/mL
- MIC (MRSA NRS384 (USA300); Table 5, MRSA NRS384 (USA300), 128 μM down to 1.0 μM, 37° C., 19 hours, read-out: Minimum Inhibitory Concentration): 4 µM
- MBC (MRSA NRS384 (USA300); Table 8, NRS384, read-out: MBC): 4 µM (≈ 1.32 µg/mL)
- MIC (MRSA NRS384 (USA300); Table 8, NRS384, read-out: MIC): 4 µM
- MIC (MRSA USA700): 1.4 µg/mL (≈ 4.25 µM)

SMILES: CCCc1ccc(-c2nc(C)c(/C(C)=N/NC(=N)N)s2)cc1 [Compound 1c, 2-{1-[4-Methyl-2-(4-propylphenyl)thiazol-5-yl]ethylidene}hydrazinecarboximidamide]
- MIC [2, 6]: 2.3 µg/mL
- MIC (MRSA USA400 (NRS123); Table 2, MRSA USA400, read-out: Minimum Inhibitory Concentration): 1.2 µg/mL
- MIC (NRS119; [11]): 2.3 µg/mL
- MIC (MRSA USA500 (NRS385); [7]): 2.3 µg/mL
- MIC (VISA LIM 3 (NRS37); [8]): 1.2 µg/mL
- MIC (VISA HIP07256 (NRS19); [9]): 2.3 µg/mL
- MIC (MRSA USA100): 1.2 µg/mL (≈ 3.8 µM)
- MIC (MRSA USA200): 2.3 µg/mL (≈ 7.29 µM)
- toxicity toward murine macrophage cells [5]: exhibited toxicity; also recorded: toxic
- MIC (MRSA USA800): 2.3 µg/mL (≈ 7.29 µM)
- MIC (MRSA NRS384 (USA300); [10]): 1.2 µg/mL

SMILES: CCCCCc1ccc(-c2nc(C)c(/C(C)=N/NC(=N)N)s2)cc1 [Compound 1d]
- MIC (NRS107; [12]): 0.5 µg/mL
- MIC [2, 6]: 0.5 µg/mL
- MIC (NRS194; [12]): 1.1 µg/mL
- MIC (NRS108): 1.1 µg/mL (≈ 3.2 µM)
- MIC (MRSA ATCC 43300 [3]; Table 2, MRSA ATCC 43300, read-out: Minimum Inhibitory Concentration): 0.8 µg/mL
- MIC (NRS119; [11]): 1.1 µg/mL
- MIC (MRSA USA500 (NRS385); [7]): 1.1 µg/mL
- MIC (VISA LIM 3 (NRS37); [8]): 0.5 µg/mL
- bactericidal effect in time-kill assay (MRSA (USA300)): bactericidal
- time to eliminate MRSA completely (reduce CFU to zero) (MRSA (USA300)): within two hours
- MIC (MRSA USA800): 0.5 µg/mL (≈ 1.46 µM)
- MIC (MRSA USA700): 1.1 µg/mL (≈ 3.2 µM)

SMILES: C/C(=N\NC(=N)N)c1sc(-c2ccc(C(C)(C)C)cc2)nc1C [Compound 1g, 2-{1-[2-(4-(tert-Butyl)phenyl)-4-methylthiazol-5-yl]ethylidene}hydrazinecarboximid-amide]
- MIC (NRS107; [12]): 1 µg/mL
- MIC [2, 6]: 1.9 µg/mL
- MIC (NRS194; [12]): 1.9 µg/mL
- MIC (VRSA (VRS10); Table 2, VRSA): 1 µg/mL
- MIC (MRSA USA500 (NRS385); [7]): 1 µg/mL
- MIC (VISA HIP07256 (NRS19); [9]): 1.9 µg/mL
- MIC (MRSA USA100): 1 µg/mL (≈ 3.04 µM)
- MIC (MRSA USA200): 1.9 µg/mL (≈ 5.77 µM)
- improvement in the MIC value relative to the lead compound ([4]; relative to lead compound 1a, number of strains as stated in the sentence): nearly two- to five-fold enhancement
- toxicity toward murine macrophage cells [5]: exhibited toxicity
- MIC (MRSA USA800): 1 µg/mL (≈ 3.04 µM)
- MIC (MRSA NRS384 (USA300); [10]): 1 µg/mL
